# Results: PubChem BioAssay (NCI)
#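 In this assay, cells in 96-well plates receive the compound at five concentrations for 48 hours. Endpoints are linearly interpolated between the surrounding concentrations. Definition used: TGI = concentration required for complete inhibition of growth.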
# Legend:
# Assay in all cases: NCI anticancer screen, dose series, 48 h
# SN12C renal = tested on: SN12C renal
# UACC-257 melanoma = tested on: UACC-257 melanoma
# PC-3 prostate = tested on: PC-3 prostate
# SK-MEL-28 melanoma = tested on: SK-MEL-28 melanoma
# MDA-N = tested on: MDA-N
# MDA-MB-435 = tested on: MDA-MB-435
# UO-31 renal = tested on: UO-31 renal
# T-47D breast = tested on: T-47D breast
# SNB-19 CNS = tested on: SNB-19 CNS
# NCI-H23 lung = tested on: NCI-H23 lung
# SK-MEL-2 melanoma = tested on: SK-MEL-2 melanoma
# RXF 393 renal = tested on: RXF 393 renal
# SNB-75 CNS = tested on: SNB-75 CNS
# IGROV1 ovarian = tested on: IGROV1 ovarian
# OVCAR-4 ovarian = tested on: OVCAR-4 ovarian
# SW-620 colon = tested on: SW-620 colon
# TK-10 renal = tested on: TK-10 renal
# NCI-H522 lung = tested on: NCI-H522 lung
# KM12 colon = tested on: KM12 colon
# MALME-3M melanoma = tested on: MALME-3M melanoma
# MDA-MB-231 breast = tested on: MDA-MB-231 breast
# HS 578T breast = tested on: HS 578T breast
# LOX IMVI melanoma = tested on: LOX IMVI melanoma
# OVCAR-3 ovarian = tested on: OVCAR-3 ovarian
# OVCAR-5 ovarian = tested on: OVCAR-5 ovarian
# DU-145 prostate = tested on: DU-145 prostate
# ACHN renal = tested on: ACHN renal
# OVCAR-8 ovarian = tested on: OVCAR-8 ovarian
# HCT-116 colon = tested on: HCT-116 colon
# SK-OV-3 ovarian = tested on: SK-OV-3 ovarian
# HL-60(TB) leukemia = tested on: HL-60(TB) leukemia
# M14 melanoma = tested on: M14 melanoma
# SF-295 CNS = tested on: SF-295 CNS
# HCT-15 colon = tested on: HCT-15 colon
# NCI/ADR-RES ovarian = tested on: NCI/ADR-RES ovarian
# HT29 colon = tested on: HT29 colon
# BT-549 breast = tested on: BT-549 breast
# SF-539 CNS = tested on: SF-539 CNS
# MOLT-4 leukemia = tested on: MOLT-4 leukemia
# NCI-H226 lung = tested on: NCI-H226 lung
# CAKI-1 renal = tested on: CAKI-1 renal
# RPMI-8226 leukemia = tested on: RPMI-8226 leukemia
# HOP-62 NSCLC = tested on: HOP-62 NSCLC
# COLO 205 colon = tested on: COLO 205 colon
# HOP-92 NSCLC = tested on: HOP-92 NSCLC
# NCI-H460 lung = tested on: NCI-H460 lung
# SF-268 CNS = tested on: SF-268 CNS
# U251 CNS = tested on: U251 CNS
# A498 renal = tested on: A498 renal
# 786-0 renal = tested on: 786-0 renal
# CCRF-CEM leukemia = tested on: CCRF-CEM leukemia
# K-562 leukemia = tested on: K-562 leukemia
# SK-MEL-5 melanoma = tested on: SK-MEL-5 melanoma
# EKVX NSCLC = tested on: EKVX NSCLC
# A549 NSCLC = tested on: A549 NSCLC
# UACC-62 melanoma = tested on: UACC-62 melanoma
# MCF7 breast = tested on: MCF7 breast
# HCC-2998 colon = tested on: HCC-2998 colon
# SR leukemia = tested on: SR leukemia
smiles,measurement,setting,value
CN1C2CCC1CN(CCOC(c1ccc(F)cc1)c1ccc(F)cc1)C2,TGI,SN12C renal,> 100 µM
same,TGI,UACC-257 melanoma,37.3 µM
same,TGI,PC-3 prostate,> 100 µM
same,TGI,SK-MEL-28 melanoma,30.1 µM
same,TGI,MDA-N,> 100 µM
same,TGI,MDA-MB-435,63.7 µM
same,TGI,UO-31 renal,> 100 µM
same,TGI,T-47D breast,76.6 µM
same,TGI,SNB-19 CNS,> 100 µM
same,TGI,NCI-H23 lung,> 100 µM
same,TGI,SK-MEL-2 melanoma,56.3 µM
same,TGI,RXF 393 renal,43 µM
same,TGI,SNB-75 CNS,> 100 µM
same,TGI,IGROV1 ovarian,> 100 µM
same,TGI,OVCAR-4 ovarian,> 100 µM
same,TGI,SW-620 colon,83.8 µM
same,TGI,TK-10 renal,> 100 µM
same,TGI,NCI-H522 lung,> 100 µM
same,TGI,KM12 colon,49.5 µM
same,TGI,MALME-3M melanoma,32.5 µM
same,TGI,MDA-MB-231 breast,58.5 µM
same,TGI,HS 578T breast,> 100 µM
same,TGI,LOX IMVI melanoma,39.1 µM
same,TGI,OVCAR-3 ovarian,> 100 µM
same,TGI,OVCAR-5 ovarian,> 100 µM
same,TGI,DU-145 prostate,> 100 µM
same,TGI,ACHN renal,> 100 µM
same,TGI,OVCAR-8 ovarian,> 100 µM
same,TGI,HCT-116 colon,44.8 µM
same,TGI,SK-OV-3 ovarian,> 100 µM
same,TGI,HL-60(TB) leukemia,31.3 µM
same,TGI,M14 melanoma,38.8 µM
same,TGI,SF-295 CNS,39.1 µM
same,TGI,HCT-15 colon,> 100 µM
same,TGI,NCI/ADR-RES ovarian,> 100 µM
same,TGI,HT29 colon,73.7 µM
same,TGI,BT-549 breast,> 100 µM
same,TGI,SF-539 CNS,38 µM
same,TGI,MOLT-4 leukemia,83.7 µM
same,TGI,NCI-H226 lung,> 100 µM
same,TGI,CAKI-1 renal,> 100 µM
same,TGI,RPMI-8226 leukemia,55.9 µM
same,TGI,HOP-62 NSCLC,59.3 µM
same,TGI,COLO 205 colon,33.8 µM
same,TGI,HOP-92 NSCLC,93.9 µM
same,TGI,NCI-H460 lung,60.6 µM
same,TGI,SF-268 CNS,> 100 µM
same,TGI,U251 CNS,78.9 µM
same,TGI,A498 renal,86 µM
same,TGI,786-0 renal,40 µM
same,TGI,CCRF-CEM leukemia,> 100 µM
same,TGI,K-562 leukemia,62.6 µM
same,TGI,SK-MEL-5 melanoma,27.8 µM
same,TGI,EKVX NSCLC,> 100 µM
same,TGI,A549 NSCLC,> 100 µM
O=c1cc(-c2ccccc2)oc2cc(Oc3nnnn3-c3ccccc3)ccc12,TGI,SN12C renal,> 100 µM
same,TGI,UACC-257 melanoma,90.9 µM
same,TGI,PC-3 prostate,> 100 µM
same,TGI,SK-MEL-28 melanoma,> 100 µM
same,TGI,MDA-N,> 100 µM
same,TGI,MDA-MB-435,46 µM
same,TGI,UO-31 renal,33.1 µM
same,TGI,T-47D breast,79.7 µM
same,TGI,SNB-19 CNS,> 100 µM
same,TGI,NCI-H23 lung,> 100 µM
same,TGI,SK-MEL-2 melanoma,97.3 µM
same,TGI,UACC-62 melanoma,> 100 µM
same,TGI,IGROV1 ovarian,> 100 µM
same,TGI,OVCAR-4 ovarian,70.9 µM
same,TGI,SW-620 colon,> 100 µM
same,TGI,TK-10 renal,> 100 µM
same,TGI,NCI-H522 lung,> 100 µM
same,TGI,KM12 colon,> 100 µM
same,TGI,MALME-3M melanoma,> 100 µM
same,TGI,MDA-MB-231 breast,> 100 µM
same,TGI,HS 578T breast,89.5 µM
same,TGI,LOX IMVI melanoma,> 100 µM
same,TGI,OVCAR-3 ovarian,> 100 µM
same,TGI,MCF7 breast,37.8 µM
same,TGI,DU-145 prostate,94.1 µM
same,TGI,ACHN renal,13.9 µM
same,TGI,OVCAR-8 ovarian,> 100 µM
same,TGI,HCT-116 colon,> 100 µM
same,TGI,SK-OV-3 ovarian,> 100 µM
same,TGI,HL-60(TB) leukemia,> 100 µM
same,TGI,HCC-2998 colon,> 100 µM
same,TGI,M14 melanoma,> 100 µM
same,TGI,SF-295 CNS,> 100 µM
same,TGI,HCT-15 colon,> 100 µM
same,TGI,HT29 colon,> 100 µM
same,TGI,BT-549 breast,52.1 µM
same,TGI,SF-539 CNS,85.4 µM
same,TGI,MOLT-4 leukemia,> 100 µM
same,TGI,NCI-H226 lung,> 100 µM
same,TGI,CAKI-1 renal,20.4 µM
same,TGI,RPMI-8226 leukemia,> 100 µM
same,TGI,HOP-62 NSCLC,> 100 µM
same,TGI,COLO 205 colon,> 100 µM
same,TGI,HOP-92 NSCLC,9.17 µM
same,TGI,NCI-H460 lung,> 100 µM
same,TGI,SF-268 CNS,52.2 µM
same,TGI,U251 CNS,41.4 µM
same,TGI,A498 renal,79.6 µM
same,TGI,786-0 renal,> 100 µM
same,TGI,CCRF-CEM leukemia,> 100 µM
same,TGI,SR leukemia,> 100 µM
same,TGI,K-562 leukemia,> 100 µM
same,TGI,SK-MEL-5 melanoma,42.4 µM
same,TGI,EKVX NSCLC,> 100 µM
same,TGI,A549 NSCLC,> 100 µM
